Drawing on patent publication US7932284B2, “Indole sulfonamide modulators of progesterone receptors” (Eli Lilly and Company, priority 2006, dated 2011), this text covers Ki for 21 compounds.

A word on the Ki: it is a measure of affinity in units of concentration, obtained from inhibition or displacement.

The target of assay [1] is T1, human AR (androgen receptor) (Homo sapiens, UniProt P10275).
T1 construct: expressed in transfected cells; host or cells: HEK293
T1 sequence (P10275 1-920): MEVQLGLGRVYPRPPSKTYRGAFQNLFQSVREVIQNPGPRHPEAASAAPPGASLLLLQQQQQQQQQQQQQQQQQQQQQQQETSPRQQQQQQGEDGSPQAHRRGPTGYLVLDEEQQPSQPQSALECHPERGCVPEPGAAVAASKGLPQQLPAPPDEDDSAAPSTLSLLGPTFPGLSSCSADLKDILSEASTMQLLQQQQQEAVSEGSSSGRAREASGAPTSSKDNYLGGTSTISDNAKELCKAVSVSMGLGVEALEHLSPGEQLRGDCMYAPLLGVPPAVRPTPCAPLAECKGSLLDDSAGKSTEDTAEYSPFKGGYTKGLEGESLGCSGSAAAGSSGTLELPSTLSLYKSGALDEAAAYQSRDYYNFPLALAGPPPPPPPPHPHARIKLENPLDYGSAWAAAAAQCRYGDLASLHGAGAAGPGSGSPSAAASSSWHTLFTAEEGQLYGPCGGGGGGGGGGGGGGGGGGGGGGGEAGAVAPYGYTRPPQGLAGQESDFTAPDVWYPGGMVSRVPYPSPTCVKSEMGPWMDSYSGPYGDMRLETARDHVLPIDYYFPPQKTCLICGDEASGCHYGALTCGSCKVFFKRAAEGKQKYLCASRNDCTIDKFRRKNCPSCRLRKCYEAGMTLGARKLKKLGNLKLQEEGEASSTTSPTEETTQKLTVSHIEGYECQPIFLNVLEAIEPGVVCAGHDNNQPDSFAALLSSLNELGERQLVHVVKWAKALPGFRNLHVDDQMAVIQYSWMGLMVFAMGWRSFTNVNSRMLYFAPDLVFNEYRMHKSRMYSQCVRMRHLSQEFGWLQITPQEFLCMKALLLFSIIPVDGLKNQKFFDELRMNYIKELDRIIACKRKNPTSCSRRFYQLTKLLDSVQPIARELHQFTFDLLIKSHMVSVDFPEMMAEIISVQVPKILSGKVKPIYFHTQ
The assay is described as follows: AR competition binding assay (HEK293 cell lysate). The following applies: 0.36 nM 3H-methyltrienolone, 293-AR lysate. The protocol: (§1) Cell lysates from HEK293 cells overexpressing human GR (glucocorticoid receptor), AR (androgen receptor), MR (mineralocorticoid receptor) or PR (progesterone receptor) are used for competition binding assays to determine Ki values for compounds of interest. Briefly, competition binding assays are run in a buffer containing 20 mM HEPES, pH 7.6, 0.2 mM EDTA, 75 mM NaCl, 1.5 mM MgCl2, 20% glycerol, 20 mM sodium molybdate, 0.2 mM DTT, 20 ug/ml aprotinin, and 20 ug/ml leupeptin, using either 0.3 nM ^3H-dexamethasone for GR binding, 0.36 nM ^3H-methyltrienolone for AR binding, 0.25 nM ^3H-aldosterone for MR binding, or 0.29 nM ^3H-methyltrienolone for PR binding, and either 20 ug 293-GR lysate, 22 ug 293-AR lysate, 20 ug 293-MR lysate or 40 ug 293-PR lysate per well. Competing compounds are added at various concentrations in half-log increments. Non-specific binding is determined in the presence of 500 nM dexamethasone for GR binding, 500 nM aldosterone for MR binding, or 500 nM methyltrienolone for AR and PR binding. The binding reaction (140 μl) is incubated overnight at 4° C., then 70 μl of cold charcoal-dextran buffer (containing per 50 ml of assay buffer, 0.75 g of charcoal and 0.25 g of dextran) is added to each reaction. Plates are mixed 8 minutes on an orbital shaker at 4° C. Plates are then centrifuged at 3,000 rpm at 4° C. for 10 minutes. An aliquot of 120 μl of the mixture is transferred to another 96-well plate and 175 μl of Wallac Optiphase “Hisafe 3” scintillation fluid is added to each well. Plates are sealed and shaken vigorously on an orbital shaker. After an incubation of 2 hrs, plates are read in a Wallac Microbeta counter. […] The Kd for ^3H-dexamethasone for GR binding, ^3H-methyltrienolone for AR binding, ^3H-aldosterone for MR binding, or ^3H-methyltrienolone for PR binding, is determined by saturation binding. The IC50 values for compounds are converted to Ki using Cheng-Prusoff equation and the Kd determined by saturation binding assay.

The target in assay [2] is T2, human GR (glucocorticoid receptor) (Homo sapiens, UniProt P04150).
T2 construct: expressed in transfected cells; host or cells: HEK293
T2 sequence (P04150 1-777): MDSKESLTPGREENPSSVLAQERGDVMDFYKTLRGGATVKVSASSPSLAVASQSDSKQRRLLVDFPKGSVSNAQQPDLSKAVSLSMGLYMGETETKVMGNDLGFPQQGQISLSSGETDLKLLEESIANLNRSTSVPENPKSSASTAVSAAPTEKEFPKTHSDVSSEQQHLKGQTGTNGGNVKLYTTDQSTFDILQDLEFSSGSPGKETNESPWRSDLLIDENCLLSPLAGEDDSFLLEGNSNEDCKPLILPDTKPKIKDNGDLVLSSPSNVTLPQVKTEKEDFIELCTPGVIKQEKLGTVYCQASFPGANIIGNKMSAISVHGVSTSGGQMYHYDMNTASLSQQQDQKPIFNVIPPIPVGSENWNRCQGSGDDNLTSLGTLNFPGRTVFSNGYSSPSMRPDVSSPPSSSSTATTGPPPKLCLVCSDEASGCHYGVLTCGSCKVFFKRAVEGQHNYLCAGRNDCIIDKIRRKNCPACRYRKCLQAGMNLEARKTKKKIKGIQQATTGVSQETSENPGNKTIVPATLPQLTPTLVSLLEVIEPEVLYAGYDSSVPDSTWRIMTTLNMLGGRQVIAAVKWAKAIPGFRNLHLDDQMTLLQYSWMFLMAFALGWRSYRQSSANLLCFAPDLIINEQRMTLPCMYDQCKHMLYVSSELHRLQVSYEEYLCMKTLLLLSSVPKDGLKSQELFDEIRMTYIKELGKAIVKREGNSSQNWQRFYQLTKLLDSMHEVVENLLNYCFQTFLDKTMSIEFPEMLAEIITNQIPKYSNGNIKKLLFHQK
The assay is described as follows: GR competition binding assay (HEK293 cell lysate). The following applies: 0.3 nM 3H-dexamethasone, 293-GR lysate. The protocol:
as §1

`CCOC(=O)c1ccc(-c2cn(C(C)C)c3cc(NS(C)(=O)=O)ccc23)cc1` [Example 74, 4-(1-Isopropyl-6-methanesulfonylamino-1H-indol-3-yl)-benzoic acid ethyl ester]: the Ki in assay [1] and in assay [2] was over 1 µM throughout.

As for `CC(C)n1cc(-c2ccc(Cl)cc2)c2ccc(NS(C)(=O)=O)cc21` [Example 36, N-[3-(4-Chloro-phenyl)-1-isopropyl-1H-indol-6-yl]-methanesulfonamide], the Ki was 0.5 to 1 µM in assay [1] and over 1 µM in assay [2].

Take `CS(=O)(=O)Nc1ccc2c(-c3ccc(C#N)cc3)cn(C3CCCC3)c2c1` [Example 63, N-[3-(4-Cyano-phenyl)-1-cyclopentyl-1H-indol-6-yl]-methanesulfonamide]: the inhibition constant (Ki) in assay [1] and in assay [2] was over 1 µM each time.

`CC(C)n1cc(-c2ccc(C#N)c(F)c2)c2ccc(NS(C)(=O)=O)cc21` [Example 38, N-[3-(4-Cyano-3-fluoro-phenyl)-1-isopropyl-1H-indol-6-yl]-methanesulfonamide]: the inhibitory constant (Ki) in assay [1] was 0.5 to 1 µM; in assay [2], over 1 µM.

Consider `CC(C)n1cc(-c2ccc3oc(=O)ccc3c2)c2ccc(NS(C)(=O)=O)cc21` [Example 96, N-[1-Isopropyl-3-(2-oxo-2H-chromen-6-yl)-1H-indol-6-yl]-methanesulfonamide], for which the inhibitory constant (Ki) in assay [1] and in assay [2] was over 1 µM each time.

For the compound `COc1ccc(-c2cn(C(C)C)c3cc(NS(C)(=O)=O)ccc23)cn1` [Example 88, N-[1-Isopropyl-3-(6-methoxy-pyridin-3-yl)-1H-indol-6-yl]-methanesulfonamide], the inhibition constant Ki in assay [1] and in assay [2] was over 1 µM throughout.

On to `CC(C)n1cc(-c2ccc(C#N)s2)c2ccc(NS(C)(=O)=O)cc21` [Example 43, N-[3-(5-Cyano-thiophen-2-yl)-1-isopropyl-1H-indol-6-yl]-methanesulfonamide], for which the Ki in assay [1] is 0.1 to 0.5 µM; in assay [2] it was over 1 µM.

As for `CC(C)n1cc(-c2ccc(C#N)cc2)c2ccc(NS(=O)(=O)C(F)(F)F)cc21` [Example 98, N-[3-(4-Cyano-phenyl)-1-isopropyl-1H-indol-6-yl]-C,C,C-trifluoro-methanesulfonamide], the inhibitory constant (Ki) in assay [1] and in assay [2] was over 1 µM each time.

Consider `CC(C)n1cc(-c2ccc3sccc3c2)c2ccc(NS(C)(=O)=O)cc21` [Example 95, N-(3-Benzo[b]thiophen-5-yl-1-isopropyl-1H-indol-6-yl)-methanesulfonamide], for which the results for the inhibition constant (Ki) in assay [1] and in assay [2] were 0.5 to 1 µM and over 1 µM, respectively.

Consider `Cc1ccc(-c2cn(C(C)C)c3cc(NS(C)(=O)=O)ccc23)cc1F` [Example 84, N-[3-(3-Fluoro-4-methyl-phenyl)-1-isopropyl-1H-indol-6-yl]-methanesulfonamide], for which the Ki in assay [1] was 0.5 to 1 µM; in assay [2], over 1 µM.

As to `Cn1cc(-c2ccc(C#N)cc2)c2ccc(NS(=O)(=O)c3cccs3)cc21` [Example 32, Thiophene-2-sulfonic acid [3-(4-cyano-phenyl)-1-methyl-1H-indol-6-yl]-amide], the Ki in assay [1] and in assay [2] was over 1 µM each time.

As for `CC(C)n1cc(-c2ccc(C#N)cc2)c2ccc(NS(=O)(=O)N3CCOCC3)cc21` [Example 100, Morpholine-4-sulfonic acid [3-(4-cyano-phenyl)-1-isopropyl-1H-indol-6-yl]-amide], the Ki in assay [1] and in assay [2] was over 1 µM throughout.

On to `CS(=O)(=O)Nc1ccc2c(-c3ccc(C#N)cc3)cn(CC3CCCCC3)c2c1` [Example 77, N-[3-(4-Cyano-phenyl)-1-cyclohexylmethyl-1H-indol-6-yl]-methanesulfonamide], for which the Ki in assay [1] and in assay [2] was 0.1 to 0.5 µM each time.

For `CC(C)n1cc(-c2ccc(C#N)cc2)c2ccc(NS(C)(=O)=O)cc21` [Example 28, N-[3-(4-Cyano-phenyl)-1-isopropyl-1H-indol-6-yl]-methanesulfonamide], the Ki in assay [1] and in assay [2] was over 1 µM throughout.

Regarding `CC(C)n1cc(-c2ccc(C=NO)cc2)c2ccc(NS(C)(=O)=O)cc21` [Example 94, N-{3-[4-(Hydroxyimino-methyl)-phenyl]-1-isopropyl-1H-indol-6-yl}-methanesulfonamide], the inhibition constant (Ki) in assay [1] is 0.1 to 0.5 µM; in assay [2], over 1 µM.

Turning to `CC(C)n1cc(-c2ccc(C(N)=O)cc2)c2ccc(NS(C)(=O)=O)cc21` [Example 87, 4-(1-Isopropyl-6-methanesulfonylamino-1H-indol-3-yl)-benzamide], the Ki in assay [1] and in assay [2] was over 1 µM in each case.

Regarding `CC(C)n1cc(-c2ccccc2)c2ccc(NS(C)(=O)=O)cc21` [Example 85, N-(1-Isopropyl-3-phenyl-1H-indol-6-yl)-methanesulfonamide], the inhibition constant Ki in assay [1] is 0.1 to 0.5 µM; in assay [2], over 1 µM.

On to `Cn1cc(-c2ccc(C#N)cc2)c2ccc(NS(C)(=O)=O)cc21` [Example 25, N-[3-(4-Cyano-phenyl)-1-methyl-1H-indol-6-yl]-methanesulfonamide], for which the Ki in assay [1] and in assay [2] was over 1 µM in each case.

Consider `CSc1ccc(-c2cn(C(C)C)c3cc(NS(C)(=O)=O)ccc23)cc1` [Example 83, N-[1-Isopropyl-3-(4-methylsulfanyl-phenyl)-1H-indol-6-yl]-methanesulfonamide], for which the Ki in assay [1] and in assay [2] was over 1 µM each time.

For `CC(C)n1cc(-c2ccc(O)cc2)c2ccc(NS(C)(=O)=O)cc21` [Example 93, N-[3-(4-Hydroxy-phenyl)-1-isopropyl-1H-indol-6-yl]-methanesulfonamide], the Ki was 0.1 to 0.5 µM in assay [1] and over 1 µM in assay [2].

Regarding `CC(C)n1cc(-c2ccc(C#N)n2C)c2ccc(NS(C)(=O)=O)cc21` [Example 78, N-[3-(5-Cyano-1-methyl-1H-pyrrol-2-yl)-1-isopropyl-1H-indol-6-yl]-methanesulfonamide], the inhibition constant Ki in assay [1] lay in the range of 0.05 to 0.1 µM; in assay [2], 0.1 to 0.5 µM.
